Results taken from ChEMBL document CHEMBL1149046, “Insect Inhibitory Steroidal Saccharide Esters from Physalis peruviana” (J Nat Prod, 1994).

Legend:
Assay type in all cases: organism-based
Details in all cases: artemia, in vivo
[1] = Toxicity in brine shrimp at 250 ppm
[2] = Toxicity in brine shrimp at 1000 ppm
[3] = Toxicity in brine shrimp at 500 ppm

CC(=O)OC[C@H]1O[C@@H](OC(=O)/C(C)=C(\C)C[C@@H](O)[C@@H](C)[C@H]2CC[C@H]3[C@@H]4CC=C5C[C@@H](O)C[C@H](O)[C@]5(C)[C@H]4[C@@H](O)C[C@]23C)[C@H](O[C@@H]2O[C@H](CO)[C@@H](O)[C@H](O)[C@H]2O)[C@@H](O)[C@@H]1O
100%: survival at 250 ppm [1] | survival at 1000 ppm [2] | survival at 500 ppm [3]

C/C(C[C@@H](O)[C@@H](C)[C@H]1CC[C@H]2[C@@H]3CC=C4C[C@@H](O)C[C@H](O)[C@]4(C)[C@H]3[C@@H](O)C[C@]12C)=C(/C)C(=O)O[C@@H]1O[C@H](CO)[C@@H](O)[C@H](O)[C@H]1O
100%: survival at 250 ppm [1] | survival at 1000 ppm [2] | survival at 500 ppm [3]

CC(=O)OC[C@H]1O[C@@H](OC(=O)/C(C)=C(\C)C[C@@H](O)[C@@H](C)[C@H]2CC[C@H]3[C@@H]4CC=C5C[C@@H](O[C@@H]6O[C@H](CO)[C@@H](O)[C@H](O)[C@H]6O)C[C@H](O)[C@]5(C)[C@H]4CC[C@]23C)[C@H](O[C@@H]2O[C@H](COC(C)=O)[C@@H](O[C@@H]3O[C@H](CO)[C@@H](O)[C@H](O)[C@H]3O)[C@H](O)[C@H]2O)[C@@H](O)[C@@H]1O
100%: survival at 250 ppm [1] | survival at 1000 ppm [2] | survival at 500 ppm [3]

CC(=O)OC[C@H]1O[C@@H](OC(=O)/C(C)=C(\C)C[C@@H](O)[C@@H](C)[C@H]2CC[C@H]3[C@@H]4CC=C5C[C@@H](O[C@@H]6O[C@H](CO)[C@@H](O)[C@H](O)[C@H]6O)C[C@H](O)[C@]5(C)[C@H]4CC[C@]23C)[C@H](O[C@@H]2O[C@H](CO)[C@@H](O[C@@H]3O[C@H](CO)[C@@H](O)[C@H](O)[C@H]3O)[C@H](O)[C@H]2O)[C@@H](O)[C@@H]1O
100%: survival at 250 ppm [1] | survival at 1000 ppm [2] | survival at 500 ppm [3]

CC(=O)OC[C@H]1O[C@@H](OC(=O)/C(C)=C(\C)C[C@@H](O)[C@@H](C)[C@H]2CC[C@H]3[C@@H]4CC=C5C[C@@H](O[C@@H]6O[C@H](CO)[C@@H](O)[C@H](O)[C@H]6O)C[C@H](O)[C@]5(C)[C@H]4CC[C@]23C)[C@H](O[C@@H]2O[C@H](CO)[C@@H](O)[C@H](O)[C@H]2O)[C@@H](O)[C@@H]1O
100%: survival at 250 ppm [1] | survival at 1000 ppm [2] | survival at 500 ppm [3]

C/C(C[C@@H](O)[C@@H](C)[C@H]1CC[C@H]2[C@@H]3CC=C4C[C@@H](O[C@@H]5O[C@H](CO)[C@@H](O)[C@H](O)[C@H]5O)C[C@H](O)[C@]4(C)[C@H]3CC[C@]12C)=C(/C)C(=O)O[C@@H]1O[C@H](CO)[C@@H](O)[C@H](O)[C@H]1O[C@@H]1O[C@H](CO)[C@@H](O)[C@H](O)[C@H]1O
100%: survival at 250 ppm [1] | survival at 1000 ppm [2] | survival at 500 ppm [3]
